Assay results: ChEMBL document CHEMBL5576135, “Discovery of Indolo[3,2-c]isoquinoline Derivatives as Novel Top1/2 Dual Inhibitors with Orally Efficacious Antitumor Activity and Low Toxicity” (J Med Chem, 2024)
The source made the active and inactive calls. The rule behind the calls is not given here.

How the values were obtained:
[1] = Toxicity in Kunming mouse assessed as lethal dose at po administration for 2 weeks; type: organism-based; conditions: in vivo
[2] = Toxicity in Kunming mouse assessed as reduction in body weight at 100 mg/kg,po administrated for 3 days; type: organism-based; set-up: scale not given: the % may be the effect or the level left; conditions: in vivo, 72 h, time 3 day
PC-3 = test: Antiproliferative activity against human PC-3 cells assessed as inhibition of cell growth incubated for 96 hrs by MTT based ELISA; type: functional; conditions: PC-3, 96 h
Huh-7 = test: Antiproliferative activity against human Huh-7 cells assessed as inhibition of cell growth incubated for 96 hrs by MTT based ELISA; type: functional; conditions: Huh-7, 96 h
[3] = target: T1, DNA topoisomerase 1 (Homo sapiens) (UniProt P11387); test: Inhibition of Topoisomerase I (unknown origin) using pBR322 DNA as substrate at 200 uM incubated for 15 mins by EtBr staining based agarose gel electrophoresis method relative to control
T1 sequence (whole entry): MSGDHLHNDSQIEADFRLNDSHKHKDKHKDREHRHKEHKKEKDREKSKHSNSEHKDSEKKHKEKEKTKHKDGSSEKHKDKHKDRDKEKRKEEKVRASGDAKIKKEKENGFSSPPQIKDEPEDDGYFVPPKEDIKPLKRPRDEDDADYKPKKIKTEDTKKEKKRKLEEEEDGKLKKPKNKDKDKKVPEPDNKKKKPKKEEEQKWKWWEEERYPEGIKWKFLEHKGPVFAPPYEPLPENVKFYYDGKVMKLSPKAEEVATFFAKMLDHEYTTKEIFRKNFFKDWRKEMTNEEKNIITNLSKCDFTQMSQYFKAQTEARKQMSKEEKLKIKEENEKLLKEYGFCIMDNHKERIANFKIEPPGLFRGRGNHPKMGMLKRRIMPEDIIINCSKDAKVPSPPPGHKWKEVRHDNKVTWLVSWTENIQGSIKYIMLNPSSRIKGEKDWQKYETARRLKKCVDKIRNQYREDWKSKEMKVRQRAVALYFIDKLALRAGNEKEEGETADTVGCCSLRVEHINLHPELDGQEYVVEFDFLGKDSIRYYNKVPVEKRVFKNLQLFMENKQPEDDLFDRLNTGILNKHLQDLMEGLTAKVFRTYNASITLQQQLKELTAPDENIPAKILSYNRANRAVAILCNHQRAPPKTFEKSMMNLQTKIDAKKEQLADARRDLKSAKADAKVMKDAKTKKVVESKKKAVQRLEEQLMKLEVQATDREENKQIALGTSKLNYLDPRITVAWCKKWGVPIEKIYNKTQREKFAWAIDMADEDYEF

[4] = target: DNA topoisomerase 2-alpha (Homo sapiens) (UniProt P11388); test: Inhibition of Topoisomerase 2 (unknown origin) using pBR322 DNA as substrate at 100 uM incubated for 15 mins by EtBr staining based agarose gel electrophoresis method relative to control
MDA-MB-231 = test: Antiproliferative activity against human MDA-MB-231 cells assessed as inhibition of cell growth incubated for 96 hrs by MTT based ELISA; type: functional; conditions: MDA-MB-231, 96 h
[5] = target: DNA topoisomerase 2-alpha (Homo sapiens) (UniProt P11388); test: Inhibition of Topoisomerase 2 (unknown origin) using pBR322 DNA as substrate at 50 uM incubated for 15 mins by EtBr staining based agarose gel electrophoresis method
MCF7 = test: Antiproliferative activity against human MCF7 cells assessed as inhibition of cell growth incubated for 96 hrs by MTT based ELISA; type: functional; conditions: MCF7, 96 h
NCI-H2228 = test: Antiproliferative activity against human NCI-H2228 cells assessed as inhibition of cell growth incubated for 96 hrs by MTT based ELISA; type: functional; conditions: NCI-H2228, 96 h
[6] = target: T1, DNA topoisomerase 1 (Homo sapiens); test: Inhibition of Topoisomerase I (unknown origin) using pBR322 DNA as substrate at 50 uM incubated for 15 mins by EtBr staining based agarose gel electrophoresis method
[7] = target: T1, DNA topoisomerase 1 (Homo sapiens); test: Inhibition of Topoisomerase I (unknown origin) using pBR322 DNA as substrate at 10 uM incubated for 15 mins by EtBr staining based agarose gel electrophoresis method
HCT-116 [8] = test: Antiproliferative activity against human HCT-116 cells assessed as inhibition of cell growth incubated for 96 hrs by MTT based ELISA; type: functional; conditions: HCT-116, 96 h
NCI-H446 [9] = test: Induction of DNA damage in human NCI-H446 cells assessed as increase in intracellular gamma-H2AX level at 8 uM incubated for 48 hrs by Western blotting analysis; type: functional, cell-based
NCI-H446 [10] = test: Induction of cell cycle arrest in human NCI-H446 cells assessed as accumulation of cells at G2/M phase at 8 uM incubated for 48 hrs by propidium iodide/RNase A staining based flow cytometry; type: functional
[11] = Toxicity in Kunming mouse assessed as reduction in body weight at 30 mg/kg,ip administrated for 3 days; type: organism-based; set-up: scale not given: the % may be the effect or the level left; conditions: in vivo, 72 h, time 3 day
NCI-H1975 = test: Antiproliferative activity against human NCI-H1975 cells assessed as inhibition of cell growth incubated for 96 hrs by MTT based ELISA; type: functional; conditions: NCI-H1975, 96 h
A549 = test: Antiproliferative activity against human A549 cells assessed as inhibition of cell growth incubated for 96 hrs by MTT based ELISA; type: functional; conditions: A549, 96 h
NCI-H446 [12] = test: Inhibition of colony formation in human NCI-H446 cells at 1 uM incubated for 24 hrs by crystal violet staining based analysis relative to control; type: functional
NCI-H446 [13] = test: Inhibition of colony formation in human NCI-H446 cells at 2 uM incubated for 24 hrs by crystal violet staining based analysis relative to control; type: functional
HCT-116 [14] = test: Antitumor activity against human HCT-116 cells xenografted with BALB/c mouse assessed as tumor growth inhibition at 20 mg/kg,ip administrated twice weekly for 21 days relative to control; type: functional, organism-based; conditions: time 21.0 day
NCI-H446 [15] = test: Induction of DNA damage in human NCI-H446 cells assessed as tail DNA at 8 uM incubated for 48 hrs by comet assay relative to control; type: functional
HCT-116 [16] = test: Antitumor activity against human HCT-116 cells xenografted with BALB/c mouse assessed as tumor growth inhibition by measuring T/C ratio at 20 mg/kg,ip administrated twice weekly for 21 days; type: functional, organism-based; conditions: time 21.0 day
DU-145 = test: Antiproliferative activity against human DU-145 cells assessed as inhibition of cell growth incubated for 96 hrs by MTT based ELISA; type: functional; conditions: DU-145, 96 h
PC-9 = test: Antiproliferative activity against human PC-9 cells assessed as inhibition of cell growth incubated for 96 hrs by MTT based ELISA; type: functional; conditions: PC-9, 96 h
NCI-H446 [17] = test: Induction of cell cycle arrest in human NCI-H446 cells assessed as accumulation of cells at S phase at 8 uM incubated for 48 hrs by propidium iodide/RNase A staining based flow cytometry; type: functional
NCI-H446 [18] = test: Induction of DNA damage in human NCI-H446 cells assessed as increase in intracellular ROS level at 8 uM incubated for 6 hrs by DCFHDA probe based fluorescence microscopic analysis; type: functional, cell-based
[19] = Antiproliferative activity against human BEAS-2B cells assessed as inhibition of cell growth incubated for 96 hrs by MTT based ELISA; type: toxicity
NCI-H446 [20] = test: Induction of apoptosis in human NCI-H446 cells at 8 uM incubated for 48 hrs by Annexin V-FITC/PI staining based flow cytometry relative to control; type: functional
NCI-H1650 = test: Antiproliferative activity against human NCI-H1650 cells assessed as inhibition of cell growth incubated for 96 hrs by MTT based ELISA; type: functional; conditions: NCI-H1650, 96 h
NCI-H446 [21] = test: Antiproliferative activity against human NCI-H446 cells assessed as inhibition of cell growth incubated for 96 hrs by MTT based ELISA; type: functional; conditions: NCI-H446, 96 h
NCI-H446 [22] = test: Inhibition of cell migration in human NCI-H446 cells at 4 uM incubated for 48 hrs by phase-contrast microscopic analysis relative to control; type: functional
NCI-H446 [23] = test: Antitumor activity against human NCI-H446 cells xenografted with BALB/c mouse assessed as tumor growth inhibition at 4 mg/kg,ip administrated 3 times weekly for 21 days in presence of cisplatin relative to control; type: functional; conditions: NCI-H446, 504 h, time 21 day, read-out: TGI
NCI-H446 [24] = test: Antitumor activity against human NCI-H446 cells xenografted with BALB/c mouse assessed as tumor growth inhibition by measuring T/C ratio at 4 mg/kg,ip administrated 3 times weekly for 21 days in presence of cisplatin; type: functional; conditions: time 21 day
[25] = target: T1, DNA topoisomerase 1 (Homo sapiens); test: Inhibition of Topoisomerase I (unknown origin) using pBR322 DNA as substrate at 2 uM incubated for 15 mins by EtBr staining based agarose gel electrophoresis method
[26] = target: DNA topoisomerase 2-alpha (Homo sapiens) (UniProt P11388); test: Inhibition of Topoisomerase 2 (unknown origin) using pBR322 DNA as substrate at 10 uM incubated for 15 mins by EtBr staining based agarose gel electrophoresis method
[27] = target: DNA topoisomerase 2-alpha (Homo sapiens) (UniProt P11388); test: Inhibition of Topoisomerase 2 (unknown origin) using pBR322 DNA as substrate at 0.5 uM incubated for 15 mins by EtBr staining based agarose gel electrophoresis method
[28] = target: T1, DNA topoisomerase 1 (Homo sapiens); test: Inhibition of Topoisomerase I (unknown origin) using pBR322 DNA as substrate at 1 uM incubated for 15 mins by EtBr staining based agarose gel electrophoresis method
[29] = target: T1, DNA topoisomerase 1 (Homo sapiens); test: Inhibition of Topoisomerase I (unknown origin) using pBR322 DNA as substrate at 5 uM incubated for 15 mins by EtBr staining based agarose gel electrophoresis method

Chain of DNA topoisomerase 2-alpha (Homo sapiens) (P11388 whole entry): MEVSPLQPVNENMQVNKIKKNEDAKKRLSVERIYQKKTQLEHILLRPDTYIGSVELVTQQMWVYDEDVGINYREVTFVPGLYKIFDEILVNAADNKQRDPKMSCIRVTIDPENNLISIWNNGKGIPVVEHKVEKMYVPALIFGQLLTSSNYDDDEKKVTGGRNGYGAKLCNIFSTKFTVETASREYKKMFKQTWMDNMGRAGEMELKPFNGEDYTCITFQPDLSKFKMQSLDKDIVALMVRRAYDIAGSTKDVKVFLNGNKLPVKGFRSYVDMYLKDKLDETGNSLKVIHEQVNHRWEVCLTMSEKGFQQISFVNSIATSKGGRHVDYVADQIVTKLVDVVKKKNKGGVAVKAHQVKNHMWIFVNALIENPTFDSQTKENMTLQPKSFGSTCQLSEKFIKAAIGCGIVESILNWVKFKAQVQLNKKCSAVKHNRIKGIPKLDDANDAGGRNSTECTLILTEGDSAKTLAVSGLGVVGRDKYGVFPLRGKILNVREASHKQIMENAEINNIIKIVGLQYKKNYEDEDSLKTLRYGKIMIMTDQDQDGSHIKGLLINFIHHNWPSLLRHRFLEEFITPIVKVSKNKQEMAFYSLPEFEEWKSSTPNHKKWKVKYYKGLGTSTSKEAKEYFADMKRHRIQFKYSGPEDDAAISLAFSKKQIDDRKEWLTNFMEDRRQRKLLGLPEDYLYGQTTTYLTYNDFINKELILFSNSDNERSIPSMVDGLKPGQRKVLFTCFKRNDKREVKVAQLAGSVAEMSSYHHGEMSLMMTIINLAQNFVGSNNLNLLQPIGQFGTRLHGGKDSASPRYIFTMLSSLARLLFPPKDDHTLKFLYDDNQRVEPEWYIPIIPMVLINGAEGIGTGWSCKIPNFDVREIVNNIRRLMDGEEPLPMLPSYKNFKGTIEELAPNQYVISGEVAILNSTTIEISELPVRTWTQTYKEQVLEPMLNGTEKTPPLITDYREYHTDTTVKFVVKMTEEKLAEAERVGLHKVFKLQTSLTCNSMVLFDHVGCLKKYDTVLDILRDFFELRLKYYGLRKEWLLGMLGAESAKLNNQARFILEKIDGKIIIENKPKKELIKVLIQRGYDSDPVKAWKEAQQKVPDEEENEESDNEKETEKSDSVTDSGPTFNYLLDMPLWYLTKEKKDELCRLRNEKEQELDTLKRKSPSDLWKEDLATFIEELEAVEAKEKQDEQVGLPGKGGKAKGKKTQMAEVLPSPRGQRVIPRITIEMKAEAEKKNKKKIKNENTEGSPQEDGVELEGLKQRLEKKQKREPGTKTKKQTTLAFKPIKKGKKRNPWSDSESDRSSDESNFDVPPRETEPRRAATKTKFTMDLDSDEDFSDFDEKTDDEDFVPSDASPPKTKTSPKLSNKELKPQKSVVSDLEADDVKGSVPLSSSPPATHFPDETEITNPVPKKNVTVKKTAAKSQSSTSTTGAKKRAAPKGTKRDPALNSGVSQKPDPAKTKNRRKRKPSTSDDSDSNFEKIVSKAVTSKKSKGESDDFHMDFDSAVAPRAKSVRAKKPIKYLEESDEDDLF

Row | Structure (SMILES) | IC50 (PC-3) [nM] | IC50 (Huh-7) [nM] | inhibition [3] [%] | inhibition [4] [%] | IC50 (MDA-MB-231) [nM] | inhibition [5] | IC50 (MCF7) [nM] | IC50 (NCI-H2228) [nM] | inhibition [6] | inhibition [7] | IC50 (HCT-116 [8]) [nM] | other results
1 | CC[C@@]1(O)C(=O)OCc2c1cc1n(c2=O)Cc2cc3c(CN(C)C)c(O)ccc3nc2-1 [TOPOTECAN] |  |  |  |  |  |  |  |  |  |  |  | LD50 at 336 h [1]: < 1000 mg/kg; Activity [2]: > 10%
2 | CCc1c2c(nc3ccc(OC(=O)N4CCC(N5CCCCC5)CC4)cc13)-c1cc3c(c(=O)n1C2)COC(=O)[C@]3(O)CC [IRINOTECAN] | 3670 | > 10000 |  |  | > 10000 |  | 4590 | 3430 |  |  | 3160 | Activity (NCI-H446 [9]): Active; Activity (NCI-H446 [10]): 59.3%; Activity [11]: > 10%; IC50 (NCI-H1975): 3410 nM; IC50 (A549): > 10 µM; inhibition at 1 µM (NCI-H446 [12]): 85.8%; inhibition at 2 µM (NCI-H446 [13]): 33.7%; inhibition (HCT-116 [14]): Active; Activity (NCI-H446 [15]): 27.8%; inhibition (HCT-116 [16]): Active; IC50 (DU-145): 960 nM; IC50 (PC-9): 3.84 µM; Activity (NCI-H446 [17]): 59.3%; Activity (NCI-H446 [18]): Active; IC50 at 96 h [19]: > 10 µM; Activity (NCI-H446 [20]): 5.3%; IC50 (NCI-H1650): 6.8 µM; IC50 (NCI-H446 [21]): 780 nM; inhibition at 4 µM (NCI-H446 [22]): 54.5%
3 | COc1cc([C@@H]2c3cc4c(cc3[C@@H](O[C@@H]3O[C@@H]5CO[C@@H](C)O[C@H]5[C@H](O)[C@H]3O)[C@H]3COC(=O)[C@H]23)OCO4)cc(OC)c1O [ETOPOSIDE] | 1590 | 3800 |  |  | 2870 |  | 1180 | 2510 |  |  | 2000 | Activity [11]: > 10%; IC50 (NCI-H1975): 340 nM; IC50 (A549): > 10 µM; IC50 (DU-145): 1650 nM; IC50 (PC-9): 2.22 µM; inhibition in vivo at 4 mg/kg (NCI-H446 [23]): 27.7%; IC50 at 96 h [19]: > 10 µM; IC50 (NCI-H1650): 2.65 µM; T/C (NCI-H446 [24]): 68.2%; IC50 (NCI-H446 [21]): 240 nM
4 | O=C(CCCn1c2cc3c(cc2c2nc(Cl)c4ccccc4c21)OCO3)NO | 2440 | 4100 | > 95 | > 95 | 1640 | Active | 2860 | 3640 | Active | Active | 1870 | inhibition [25]: Active; inhibition [26]: Active; inhibition [27]: Active; inhibition [28]: Active; inhibition [29]: Active
5 | COc1ccc2c(c1)c1nc(Cl)c3ccccc3c1n2CCCC(=O)NO | 1660 | 2980 | > 95 | > 95 | 980 | Active | 1510 | 2390 | Active | Active | 740 | 

The next lines start with results.

Row | IC50 (PC-3) [nM] | IC50 (Huh-7) [nM] | inhibition [3] [%] | inhibition [4] [%] | IC50 (MDA-MB-231) [nM] | inhibition [5] | IC50 (MCF7) [nM] | IC50 (NCI-H2228) [nM] | inhibition [6] | inhibition [7] | IC50 (HCT-116 [8]) [nM] | Structure (SMILES) | other results
6 | 1550 | 2890 | > 95 | > 95 | 950 | Active | 2320 | 3070 | Active | Active | 1320 | O=C(CCCn1c2cc3c(cc2c2ncc4ccccc4c21)OCO3)NO | 
7 | 630 | 1240 | > 95 | > 95 | 480 | Active | 600 | 1160 | Active | Active | 220 | CN(C)CCCn1c2cc3c(cc2c2[nH]c(=O)c4ccccc4c21)OCO3 | 
8 | 470 | 940 | > 95 | > 95 | 560 | Active | 370 | 960 | Active | Active | 260 | CN(C)CCCn1c2cc3c(cc2c2nc(Cl)c4ccccc4c21)OCO3 | 
